# Measurements published in ChEMBL document CHEMBL1201862, “PubChem BioAssay data set” (2004).
# Calls of active or inactive are those of the source. Cut-off read from the data, not from the text of the source, for most assays here: actives have a measured EC50 and inactives only a lower limit.
# Tests used:
# [1] = viability loss in THP-1 monocytes – THP-1 cells, cytotoxicity control for Vif-APOBEC3G degradation inhibitor project, dose response (AID 1117359); type: functional; conditions: THP-1
# Protein Rev = Protein Rev (Human immunodeficiency virus type 1 group M subtype B (isolate HXB2)(HIV-1), UniProt P04618); assay: blockers of HIV Rev/RRE RNA complex – biochemical, fluorescence polarization, HIV-1, dose response (AID 434976); parameters: species or system Human immunodeficiency virus 1
# Protein Rev, sequence (P04618 whole entry): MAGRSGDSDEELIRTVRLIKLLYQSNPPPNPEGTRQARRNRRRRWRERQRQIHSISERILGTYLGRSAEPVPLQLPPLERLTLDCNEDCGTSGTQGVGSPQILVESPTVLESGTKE
# [2] = molecular target: T1, Polyadenylate-binding protein 1 (Homo sapiens, UniProt P11940); assay: MLLE binding blockers, Cy5 peptide tracer – biochemical, fluorescence polarization, Cy5-PAM2 peptide, secondary, miRNA deadenylation inhibitor project, dose response (AID 602260); type: functional; conditions: read-out: IC50_Mean
# T1 sequence (P11940 whole entry, the tested form may be a part): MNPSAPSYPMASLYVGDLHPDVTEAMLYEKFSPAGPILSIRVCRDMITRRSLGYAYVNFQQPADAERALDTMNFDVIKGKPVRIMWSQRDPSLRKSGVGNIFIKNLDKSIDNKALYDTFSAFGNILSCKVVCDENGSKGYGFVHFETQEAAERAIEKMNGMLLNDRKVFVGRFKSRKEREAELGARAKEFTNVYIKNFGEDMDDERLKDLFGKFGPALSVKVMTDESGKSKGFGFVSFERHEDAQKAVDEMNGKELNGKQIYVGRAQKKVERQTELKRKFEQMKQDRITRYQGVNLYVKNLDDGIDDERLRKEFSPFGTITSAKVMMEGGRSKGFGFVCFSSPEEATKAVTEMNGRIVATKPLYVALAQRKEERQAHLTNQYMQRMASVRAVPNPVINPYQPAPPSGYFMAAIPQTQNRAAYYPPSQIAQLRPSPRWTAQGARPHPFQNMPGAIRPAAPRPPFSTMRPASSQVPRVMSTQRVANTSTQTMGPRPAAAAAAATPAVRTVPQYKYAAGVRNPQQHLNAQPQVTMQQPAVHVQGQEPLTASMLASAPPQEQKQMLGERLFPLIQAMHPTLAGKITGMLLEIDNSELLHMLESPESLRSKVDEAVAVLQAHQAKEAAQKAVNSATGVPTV
# [3] = molecular target: T1, Polyadenylate-binding protein 1; assay: MLLE domain peptide-binding blockers, IC50 – biochemical, fluorescence polarization, FITC-PAM2 peptide, dose response (AID 602259); type: functional; conditions: read-out: IC50_Mean
# Protein Tat = molecular target: T2, Protein Tat (Human immunodeficiency virus type 1 group M subtype B (isolate HXB2)(HIV-1), UniProt P04608); type: functional;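 note: tat binding to TAR RNA read out by fluorescence polarization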
# T2 sequence (P04608 whole entry): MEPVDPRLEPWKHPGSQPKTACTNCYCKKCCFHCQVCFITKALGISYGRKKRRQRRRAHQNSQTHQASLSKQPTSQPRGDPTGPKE
# [4] = molecular target: Female germline-specific tumor suppressor gld-1 (Caenorhabditis elegans, UniProt Q17339); assay: blockers of GLD-1/TGE RNA complex formation – biochemical, fluorescence polarization, C. elegans, dose response (AID 2802);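 note: fluorescence polarization of labeled TGE RNA bound by purified gld-1 protein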
# Female germline-specific tumor suppressor gld-1, sequence (Q17339 whole entry): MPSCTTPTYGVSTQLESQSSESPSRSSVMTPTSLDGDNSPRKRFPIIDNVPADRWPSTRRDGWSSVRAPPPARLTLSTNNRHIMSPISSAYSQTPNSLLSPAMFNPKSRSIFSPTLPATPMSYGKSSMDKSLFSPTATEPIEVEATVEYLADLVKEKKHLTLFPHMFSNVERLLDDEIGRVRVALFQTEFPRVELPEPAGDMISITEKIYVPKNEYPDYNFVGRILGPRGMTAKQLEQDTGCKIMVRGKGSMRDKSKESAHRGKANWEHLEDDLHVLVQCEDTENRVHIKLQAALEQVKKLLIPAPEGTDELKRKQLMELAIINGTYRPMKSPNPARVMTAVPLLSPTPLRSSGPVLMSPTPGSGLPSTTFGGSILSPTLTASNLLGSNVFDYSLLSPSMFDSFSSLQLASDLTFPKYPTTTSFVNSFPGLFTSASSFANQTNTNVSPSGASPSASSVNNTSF
# J774.A1 = assay: Confirmation of image-based Screening Assay for Inhibitors of Phagocytosis. [Related pubchem assays (depositor defined):AID1029, AID1643]; type: functional, cell-based; conditions: Mus musculus
# [5] = Luminescence Cell-Based Dose Response HTS to Identify Inhibitors of 5'UTR Stem-Loop Driven Prion Protein mRNA Translation in H4 Neuroglioblastoma Cells. [Related pubchem assays: 1827 (Project Summary), 1813 (Primary HTS)]; type: functional
# [6] = luciferase reporter signal reduction – luminescence, H4-C neuroglioblastoma cells, dose response (AID 2458); type: functional, cell-based;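 note: H4 neuroglioblastoma cells stably carrying a luciferase reporter gene fusion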
# BJ [7] = assay: BJ-TERT fibroblast viability loss – cell-based, RAS-independent, luminescence, dose response (AID 1933); type: functional; conditions: Homo sapiens
# [8] = DRD fibroblast viability loss – cell-based, non-viral oncogenic, luminescence, dose response (AID 1934); type: functional; conditions: Homo sapiens
# cells = type: functional, cell-based
# [9] = luciferase reporter signal suppression in cells – H4 neuroglioma cells, luminescence, dose response (AID 1990); type: functional, cell-based
# BJ [10] = assay: BJ-TERT-LT-ST fibroblast viability loss – cell-based, RAS-independent, luminescence, dose response (AID 1935); type: functional; conditions: Homo sapiens;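 note: BJ fibroblasts immortalized with TERT plus LT and ST oncogenes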
# BJ [11] = assay: cells; type: functional, cell-based; conditions: Homo sapiens
# [12] = alpha-synuclein stem-loop luciferase translation blockers – H4 neuroglioma cells, luminescence, confirmation (AID 1988); type: functional, cell-based
# [13] = alpha-synuclein stem-loop translation blockers – luminescence, H4 neuroglioblastoma cells, dose confirmation, confirmation (AID 2454); type: functional, cell-based;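 note: H4 neuroglioblastoma cells carrying an alpha-synuclein 5'UTR luciferase reporter; potency for inhibition of the luciferase signal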
# Prothrombin = Prothrombin (Homo sapiens, UniProt P00734); assay: Thrombin 1536 HTS Dose Response Confirmation. [Related pubchem assays: 1046 (Thrombin 1536 HTS; hits were confirmed in this assay)]; type: functional
Compound,CC50 [1],IC50 (Protein Rev),IC50 [2],IC50 [3],IC50 (Protein Tat),IC50 [4],IC50 (J774.A1),EC50 [5],EC50 [6],EC50 (BJ [7]),EC50 [8],EC50 (cells),EC50 [9],EC50 (BJ [10]),EC50 (BJ [11]),EC50 [12],EC50 [13],IC50 (Prothrombin)
Clc1ccc(/C=N/c2c(-c3ccco3)nc3ccccn23)cc1,> 40 µM (active),> 75.4 µM (not active),> 66 µM (inactive),59.2 µM (inactive),6.48 µM (inconclusive),2.59 µM (active),–,–,–,–,–,–,–,–,–,–,–,–
O=C(c1ccco1)N1CCN(C(=O)N2c3ccccc3Sc3ccccc32)CC1,–,–,–,–,–,–,< 50 nM (inactive),136 nM (active),295 nM (active),8.08 µM (inconclusive),6.59 µM (inconclusive),291 nM (active),< 100 nM (active),1.41 µM (inconclusive),13.2 µM (inconclusive),< 100 nM (active),381 nM (active),> 50 µM (not active)
